According to patent US7482455B2, “Chemical compounds” (SmithKline Beecham Corporation, priority 2002, dated 2009):
pIC50: −log10 of the molar value. Structures can show the parent of a compound that is named as a salt.

target: T1, hYAK3 (Homo sapiens, UniProt O43781); assay: YAK3 Scintillation Proximity Assay using Ser164 of myelin basic protein as the phosphoacceptor (kinase assay of purified hYAK3); assay type: biochemical; conditions: purified GST-hYak3-His6 (residues 124-526), 4 nM; 0.001 mM ATP; 4 μM Ser164 peptide; 2 hours at room temperature; compounds 50 μM to 0.5 nM
T1 construct: containing amino acid residues 124-526 of human YAK3; GST (N); His6 (C); made in house; host or cells: baculovirus expression system in Sf9 cells
T1 sequence (O43781 124-526): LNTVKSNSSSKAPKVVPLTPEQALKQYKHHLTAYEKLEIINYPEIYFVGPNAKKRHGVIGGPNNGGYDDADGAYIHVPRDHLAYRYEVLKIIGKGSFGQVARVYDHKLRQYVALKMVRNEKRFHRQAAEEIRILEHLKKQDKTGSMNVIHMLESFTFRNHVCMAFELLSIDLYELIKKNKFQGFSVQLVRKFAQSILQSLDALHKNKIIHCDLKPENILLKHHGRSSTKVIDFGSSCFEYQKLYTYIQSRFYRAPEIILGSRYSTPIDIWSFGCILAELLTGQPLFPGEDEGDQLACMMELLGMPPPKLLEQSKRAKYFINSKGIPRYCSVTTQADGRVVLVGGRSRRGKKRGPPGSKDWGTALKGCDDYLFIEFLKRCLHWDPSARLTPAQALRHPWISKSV
Method: YAK3 Scintillation Proximity Assays Using Ser164 of Myelin Basic Protein as the Phosphoacceptor
Source of Ser164 Substrate Peptide:
The biotinylated Ser164, S164A peptide(Biotinyl -LGGRDSRAGS*PMARR—OH), sequence derived from the C-terminus of bovine myelin basic protein (MBP) with Ser162 substituted as Ala162, was purchased from California Peptide Research Inc. (Napa, Calif.), and its purity was determined by HPLC. Phosphorylation occurs at position 164 (marked S* above). The calculated molecular mass of the peptide was 2166 dalton. Solid sample was dissolved at 10 mM in DMSO, aliquoted, and stored at −20° C. until use.
hYAK3: Glutathione-S-Transferase (GST)-hYak3-His6 containing amino acid residues 124-526 of human YAK3 was purified from baculovirus expression system in Sf9 cells using Glutathione Sepharose 4B column chromatography followed by Ni-NTA-Agarose column chromatography. Purity greater than 65% typically was achieved. Samples, in 50 mM Tris, 150 mM NaCl, 10% glycerol, 0.1% Triton, 250 mM imidazole, 10 mM β-mercapto ethanol, pH 8.0.—
were stored at −80° C. until use.
Kinase Assay of Purified hYAK3:
Assays were performed in 96 well (Costar, Catalog No. 3789) or 384 well plates (Costar, Catalog No. 3705). Reaction (in 20, 25, or 40 μl volume) mix contained in final concentrations 25 mM Hepes buffer, pH 7.4; 10 mM MgCl2; 10 mM β-mercapto ethanol; 0.0025% Tween-20; 0.001 mM ATP, 0.1 ? Ci of [ ? -^33P]ATP; purified hYAK3 (7-14 ng/assay; 4 nM final); and 4 μM Ser164 peptide. Compounds, titrated in DMSO, were evaluated at concentrations ranging from 50 μM to 0.5 nM. […] Reactions were incubated for 2 hours at room temperature and were stopped by a 75 ul addition of […] Streptavidin Scintillation Proximity beads (Amersham Pharmacia Biotech, Catalog No. RPNQ 0007) in PBS, pH 7.4, 10 mM EDTA, 0.1% Triton X-100, 1 mM ATP. Under the assay conditions defined above, the Km(apparent) for ATP was determined to be 7.2+/−2.4 μM. Assay results are depicted in Table 1.

Question: How did the pIC50 turn out when COc1ccc2cc(C(=O)O)c(NCCCNC(=O)OC(C)(C)C)nc2c1 [Example 1, 2-(3-tert-butoxycarbonylamino-propylamino)-7-methoxy-quinoline-3-carboxylic acid] was run?
Answer: Its pIC50 is 5.00 to 6.00.

Question: With COc1ccc2cc(C(=O)O)c(NCCc3ccccc3)nc2c1 [Example 4, 7-methoxy-2-phenethylamino-quinoline-3-carboxylic acid] as the compound, how does the pIC50 read?
Answer: Its pIC50 is greater than 6.00.

Question: How did the pIC50 turn out when COc1ccc2cc(C(=O)O)c(NCCCN3CCOCC3)nc2c1 [Example 8, 7-methoxy-2-(3-morpholin-4-yl-propylamino)-quinoline-3-carboxylic acid] was run?
Answer: The pIC50 was 5.00 to 6.00.

Question: COc1ccc2cc(C(=O)O)c(NCc3ccccc3)nc2c1 [Example 3, 2-benzylamino-7-methoxy-quinoline-3-carboxylic acid] was tested. Which pIC50 did it give?
Answer: The pIC50 was greater than 6.00.

Question: With COc1ccc2cc(C(=O)O)c(NC3Cc4ccccc4C3)nc2c1 [Example 7, 2-(indan-2-ylamino)-7-methoxy-quinoline-3-carboxylic acid] as the compound, how does the pIC50 read?
Answer: Its pIC50 is greater than 6.00.

Question: With COc1ccc2cc(C(=O)O)c(NCCCN)nc2c1 [Example 2, 2-(3-amino-propylamino)-7-methoxy-quinoline-3-carboxylic acid] as the compound, how does the pIC50 read?
Answer: Its pIC50 is greater than 6.00.

Question: COc1ccc2cc(C(=O)O)c(NCCc3ccncc3)nc2c1 [Example 5, 7-methoxy-2-(2-pyridin-4-yl-ethylamino)-quinoline-3-carboxylic acid] was tested. Which pIC50 did it give?
Answer: The pIC50 was greater than 6.00.

Question: O=C(O)c1cc2ccc(O)cc2nc1Nc1ccccc1Cl [Example 12, 2-(2-Chloro-phenylamino)-7-hydroxy-quinoline-3-carboxylic acid] was tested. Which pIC50 did it give?
Answer: The pIC50 was greater than 6.00.

Question: With COc1ccc2cc(C(=O)O)c(NCCN(C)C)nc2c1 [Example 6, 2-(2-dimethylamino-ethylamino)-7-methoxy-quinoline-3-carboxylic acid hydrochloride] as the compound, how does the pIC50 read?
Answer: The pIC50 was greater than 6.00.
